Test results from patent US5545639A, “Method of inhibiting transformed cells” (The United States of America as represented by the …, priority 1994, dated 1996).

Assays:
DMS 114 = experiment: Dose response of growth, tumor cell line; format: cell-based; conditions: Homo sapiens; DMS 114, small cell lung cancer; read-out: 50% Loss (50% kill)
Procedure: Indeed, 70% of the cell lines were shown not only to experience precluded growth, but cell death, when exposed to less then 100 μM of the active ingredient.

DMS 273 = experiment: Dose response of growth, tumor cell line; format: cell-based; conditions: Homo sapiens; DMS 273, small cell lung cancer; read-out: 50% Loss (50% kill)

SMILES: ClCc1ccc2ccc3ccc(CCl)nc3c2n1 [2,9-bis(chloromethyl)-1,10-phenanthroline]
- CC50 (DMS 114): 7.72 µM
- CC50 (DMS 273): > 100 µM
